Assay [1] deals with T1, IL-6 (Homo sapiens, UniProt P05231). It is filed as binding. Also noted: purchased Kamakura Techno-Science, Inc. Conditions: estimated. The method, then: Using Biacore T200 (GE Healthcare), A11 was analyzed for its interaction with human IL-6 (Kamakura Techno-Science, Inc.) in antigen-antibody reaction. Sensor chip CM5 (GE Healthcare) was immobilized with an appropriate amount of protein A/G (Invitrogen) by amine coupling. Antibodies of interest were captured by the chip to allow interaction to IL-6 as an antigen. The two types of running buffers used were 10 mmol/1 ACES, 150 mmol/l NaCl, 0.05% (w/v) Tween20, 100 μmol/l kynurenine, pH 7.4, and 10 mmol/1 ACES, 150 mmol/l NaCl, 0.05% (w/v) Tween20, pH 7.4. The interaction with IL-6 as an antigen was assessed at 37° C. The buffer used to dilute IL-6 was the same running buffer as described above.
T1 sequence (P05231 30-212): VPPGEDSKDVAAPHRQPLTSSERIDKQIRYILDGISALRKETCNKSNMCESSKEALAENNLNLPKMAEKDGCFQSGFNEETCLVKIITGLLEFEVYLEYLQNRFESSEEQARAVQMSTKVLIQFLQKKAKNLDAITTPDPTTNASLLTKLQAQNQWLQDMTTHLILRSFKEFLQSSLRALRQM
A diluted solution of human IL-6 and a running buffer as a blank were injected at a flow rate of 5 μl/min for three minutes to allow interaction of human IL-6 with A11 captured on the sensor chip. […] The dissociation constant KD (M) of A11 was calculated for human IL-6 based on the association rate constant ka (1/Ms) and dissociation rate constant kd (1/s), both of which are kinetic parameters calculated from the sensorgram obtained by the measurement. Each parameter was calculated using the Biacore T200 Evaluation Software (GE Healthcare).
Then, the effect of kynurenine concentration on antigen-antibody reaction between A11 and human IL-6 was assessed using Biacore T200 (GE Healthcare). […]

The target of assay [2] is T1, IL-6. Put plainly: Biacore T200, interaction between IL-6 and kynurenine. Conditions: kynurenine at a maximal concentration of 800 nmol/l, about 5000 RU IL-6 immobilized, 25° C. Also noted: purchased Kamakura Techno-Science, Inc. It is filed as binding. As for the experimental part:
The interaction between IL-6 (Kamakura Techno-Science, Inc.) and kynurenine was analyzed using Biacore T200 (GE Healthcare). Sensor chip CM5 (GE Healthcare) was immobilized with about 5000 RU of IL-6 by amine coupling, and 800, 400, 200, 100, 50, or 25 nmol/l kynurenine was allowed to interact with IL-6. The running buffer used was 10 mmol/l ACES, 150 mmol/l NaCl, 0.05% (w/v) Tween20, pH 7.4. All measurements for the interaction described above were carried out at 25° C. Kynurenine was diluted using the running buffer.
About 5000 RU of IL-6 was immobilized in the above-described experiment. The molecular weights of IL-6 and kynurenine were about 20000 g/mol and about 200 g/mol, respectively. Thus, at maximum about 50 RU of kynurenine was expected to interact.
On the technique in general: Surface plasmon resonance follows binding to a sensor surface in real time, without labels.

In a further assay the target is T2, hIL-6R (Homo sapiens, UniProt P08887).
T2 sequence (P08887 20-355 limits assumed): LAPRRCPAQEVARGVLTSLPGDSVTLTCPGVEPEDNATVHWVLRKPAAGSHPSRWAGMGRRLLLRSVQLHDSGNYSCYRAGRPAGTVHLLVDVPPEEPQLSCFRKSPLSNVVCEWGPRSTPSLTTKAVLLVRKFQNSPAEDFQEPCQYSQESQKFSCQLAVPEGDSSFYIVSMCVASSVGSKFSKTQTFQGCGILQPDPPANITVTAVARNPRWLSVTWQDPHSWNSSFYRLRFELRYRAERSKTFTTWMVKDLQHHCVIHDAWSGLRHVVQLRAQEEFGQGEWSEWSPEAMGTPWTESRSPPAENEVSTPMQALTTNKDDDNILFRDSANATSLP
Put plainly: IgG ELISA, binding to hIL-6R in mouse serum with or without kynurenine. Conditions: mouse serum with or without kynurenine. As for the experimental part:
As described in Example 14, antibody 6RNMSC1-2_F02 which has antigen-binding activity in the presence of kynurenine, and the known anti-hIL-6R antibody MRA were subjected to ELISA under the two conditions described in Table 20. The antigen used was biotin-labeled hIL-6R.
First, a StreptaWell 96 microtiter plate (Roche) was coated at room temperature for one hour or more with 100 μl of PBS containing the biotin-labeled antigen. After washing with Wash buffer to remove unbound antigen from the plate, each well was blocked for one hour or more with 250 μl of Blocking Buffer. After Blocking Buffer was removed from each well, each of the purified IgGs was prepared to 2.5 μg/ml under condition 2 shown in Table 20, and aliquoted at 100 μl into the plate. The plate was allowed to stand at room temperature for one hour to allow binding of each IgG to the antigen in each well. After washing with Wash Buffer containing 100 μM kynurenine, an HRP-conjugated anti-human IgG antibody (BIOSOURCE) diluted with Sample Buffer containing kynurenine was added to each well. The plate was incubated for one hour. Following wash with Wash Buffer containing kynurenine, the TMB single solution (ZYMED) was added to each well. The chromogenic reaction in the solution of each well was terminated by adding sulfuric acid. Then, the developed color was assessed by measuring absorbance at 450 nm.
On the technique in general: In an ELISA, binding on a coated surface is turned into a signal by an enzyme label.

The subject of a further assay is BaF/hIL-6R cells. Put plainly: Flow cytometry, binding to membrane-type hIL-6R on BaF/hIL-6R cells. It is filed as cell-based. To be noted: with and without 100 μM kynurenine. The method, then:
6RNMSC1-2_F02 antibody which has an antigen-binding activity in the presence of kynurenine as described in Example 14 was assessed for its binding to soluble hIL-6R. As a first step in assessing the ADCC activity of 6RNMSC1-2_F02 to hIL-6R-expressing cells, 6RNMSC1-2_F02 was evaluated as to whether it has the ability to bind to membrane-type hIL-6R expressed in hIL-6R-expressing cells. Specifically, the binding of 6RNMSC1-2_F02 to cells of the BaF/hIL-6R line (WO2012/073992) was assayed and analyzed using a flow cytometer. An appropriate number of BaF/hIL-6R cells were prepared and blocked with PBS containing 2% FBS on ice for one hour or more. Supernatant was removed from the blocked cells by centrifugation, and 100 μl of 6RNMSC1-2_F02 or the control antibody MRA (the heavy chain and light chain sequences are shown in SEQ ID NOs: 92 and 93, respectively) was added under two conditions: in the presence or absence of a final concentration of kynurenine at 100 μM. In this step, the antibodies were contacted with cell-membrane hIL-6R on ice for 30 minutes. […] Then, in the presence or absence of kynurenine, the complex was contacted with a secondary antibody (Beckman Coulter IM1627) that recognizes the antibody constant region. […] The binding of 6RNMSC1-2_F02 to the prepared cells was assayed and analyzed using the BD FACS cant II Flow Cytometer (BD).
On the technique in general: In flow cytometry, cells or beads pass a laser one at a time.

For `Nc1ccccc1C(=O)C[C@H](N)C(=O)O` [kynurenine], the “KD of kynurenine for formation of the complex consisting of A11, IL-6, and kynurenine” value on IL-6 [1] is on record as “several tens nM to several nM”. Further, on IL-6 [2], the “interaction with IL-6” value is listed as “not detectable”.
With “MRA: known anti-human IL-6R antibody; SEQ ID NOs: 92 and 93 [reference compound]”, the “absorbance, effect of kynurenine” value in the assay with hIL-6R is reported as “the same regardless of the presence or absence of kynurenine”. In addition, the “fluorescence (binding to membrane-type hIL-6R)” value with BaF/hIL-6R cells is “detectable regardless of the presence or absence of kynurenine”.

The values are drawn from US11673947B2, “Target tissue-specific antigen-binding molecule” (Chugai Seiyaku Kabushiki Kaisha, priority 2012, dated 2023).
